Data as given in US11759412B2, “Personal care compositions with glutathione precursor comprising 4-substituted resorcinols and amino acids” (Conopco, Inc., priority 2016, dated 2023).

How the values were obtained:
Assay type in all cases: cell-based
[1] = tested on: Human Keratinocytes; experiment: Reactive Oxygen Species (ROS) Assay (CellROX green, menadione); conditions: for synergistic decrease in ROS production, combination with GAP amino acids vs either alone: resorcinol/test reagent combined with GAP
Procedure: Human Keratinocytes (Promocell, Heidelberg, Germany) were maintained in EpiLife® keratinocyte medium containing 60 uM calcium chloride and 1% Human Keratinocyte Growth Supplement (HKGS) in a humidified incubator with an atmosphere containing 5% CO2 at 37° C. The medium was refreshed every other day. Subsequently, cells were trypsinized at 90% confluency and seeded at a density of 1-2×10^4 per well into 96-well plates with black wall and clear bottom. On the second day after seeding, cell medium was replaced with Hank's Balanced Salt Solution (HBSS) with or without menadione (10-25 uM), GAP (typically at 49 uM pyroglutamic acid, 60 uM cystine, 194 uM glycine), GAP vehicle (0.2 mM NaOH, pH 7.5), above-described additional test reagents, or combinations of GAP with additional test reagents or L-cystine esters alone, and incubated for additional 18 hours. For ROS detection, CellROX green (Life Tech, Thermo Fisher Scientific, Rockford, USA) reagent was added into each well to a final concentration of 15-25 uM and incubated for additional 2-4 hours at 37° C. in a humidified incubator. The ROS fluorescence was detected using a Tecan microplate reader (Excitation/Emission=490/525). Relative ROS production was calculated with normalization based on the vehicle control treatment which was set to 100%. Where indicated, percent protection was calculated as a comparison to menadione alone treatment, using the measured relative fluorescent units in the following equation: […]
ROS levels were evaluated together with cell viability because it is possible to get a false negative for ROS if treatment is so toxic, that at the time of assay, cells are dead (and there are no longer any detectable ROS). Decrease in ROS levels is meaningful if cells are still viable.

[2] = tested on: Human Keratinocytes; experiment: Cell Viability Assay (CCK-8, menadione); conditions: for cell viability (% vehicle of control): Table 3B
Procedure: Human Keratinocytes (Promocell, Heidelberg, Germany) were maintained in EpiLife® keratinocyte medium containing 60 uM calcium chloride and 1% Human Keratinocyte Growth Supplement (HKGS). The medium was refreshed every other day. Subsequently, cells were trypsinized at 90% confluency and seeded at a density of 2×10^4 per well into 96-well transparent tissue culture plates. On the second day after seeding, cell medium was replaced with treatments as described above in ROS assay section. After 18 hours, […] (CCK-8) reagent (Dojindo, Kumamoto, Japan) was diluted 1:10 in HBSS and incubated with cells for 4 h at 37° C. in a humidified incubator. Optical absorption at 450 nm was measured using a Tecan Safire2 plate reader. Relative viability was calculated with normalization based on the vehicle control treatment, which was set to 100%.
Where indicated, percent protection was calculated as a comparison to menadione alone treatment, using the measured relative absorbance units in the following equation: […]

[3] = tested on: Aged Human Keratinocytes; experiment: Glutathione Assay (total glutathione, GSH-GSSG Glo, menadione challenge); conditions: for % Protection (improvement vs vehicle control + menadione) / Glutathione Synthesis, Mean (uM glutathione): Table 3A
Procedure: Aged Human Keratinocytes (Cascade Biologics, now ThermoFisher Scientific, Waltham, Mass.) were maintained in Epi Life® medium containing 60 uM calcium chloride and 1% Human Keratinocyte Growth Supplement (both media components from ThermoFisher Scientific) in a humidified incubator with an atmosphere containing 5% CO2 at 37° C. The medium was refreshed every 2-3 days. Subsequently, cells were trypsinized at 90% confluency and seeded at a density of 1×10^4 per well into 96-well plates with white wall and clear bottom. One or two days after seeding, cell medium was replaced with Hank's Balanced Salt Solution (HBSS), and keratinocytes were pre-treated with GAP (or 0.12-0.240 mM sodium hydroxide vehicle control, pH 7.5) alone or in combination with additional test reagents described above or L-cystine esters alone for 1-2 hours. The concentration of all amino acids constituting the GAP mixture used in this assay are designated in the data tables, and fully described in the abbreviations list below.
After one or two hours of pre-treatment with GAP or additional test reagents, alone or in combination, keratinocytes were then challenged with 25 uM menadione (Sigma-Aldrich), a known inducer of oxidative stress. After 18-20 hours, cells were harvested and analyzed for total glutathione levels using a commercially available kit (GSH-GSSG GLo Assay, Promega), a luminescence-based system for the detection and quantification of total glutathione in cultured cells. In summary, after cell treatment, the media was removed and replaced with a cell lysis reagent for 5 minutes at 20-25° C.; note, all remaining steps were also conducted at 20-25° C. Next, a luciferase generation reagent was added to each well and incubated for 30 minutes. Following this step, a luciferin detection reagent was added to each well and plates were incubated for 15 minutes. Finally, plates were then read for luminescence in a FlexStation 3 plate reader (Molecular Devices). Total glutathione levels were calculated after interpolation of glutathione concentrations from a standard curve. Experimental conditions were typically conducted in at least triplicate determinations. Statistical significance was calculated using 1-way ANOVA. Percent protection was calculated by using the calculated glutathione levels from each experiment in the following equation: […]

[4] = Table 3C, MR 10 uM where present, + menadione
[5] = Olivetol or 3-hydroxytyrosol 10 uM + menadione
[6] = Olivetol or 3-hydroxytyrosol 20 uM + menadione
[7] = Olivetol or 3-hydroxytyrosol 50 uM + menadione
[8] = Table 1F, DTBC 20 uM + menadione
[9] = Table 1H, CDME 20 uM + menadione
[10] = Table 1H, CDME 40 uM + menadione
[11] = Table 1H, CDME 80 uM + menadione
[12] = Table 1H, CDME 160 uM + menadione

Cc1ccc(O)cc1O [MR, 4-methylresorcinol]
Mean ROS production (% of vehicle control) [1, 4]: 233.5^1%
synergistic decrease in ROS production, combination with GAP amino acids vs either alone ([1]; + menadione): did not result
Cell viability (% of vehicle control) [2, 4]: 45.3%

OCCc1ccc(O)c(O)c1 [3-hydroxytyrosol]
% Protection (improvement vs vehicle control + menadione) [3, 5]: −3%
Glutathione Synthesis, Mean (uM glutathione) [3, 5]: 0.07 µM
% Protection (improvement vs vehicle control + menadione) [3, 6]: −5%
Glutathione Synthesis, Mean (uM glutathione) [3, 6]: 0.03 µM
% Protection (improvement vs vehicle control + menadione) [3, 7]: −4%
Glutathione Synthesis, Mean (uM glutathione) [3, 7]: 0.04 µM
synergistic increase in GSH synthesis, combination with GAP amino acids vs either alone ([3]; resorcinol/test reagent combined with GAP, + menadione): no synergistic effect
ROS production (% of vehicle control) ([1]; Table 3B, 3-hydroxytyrosol 10 uM + menadione): 241.6%
ROS production (% of vehicle control) ([1]; Table 3B, 3-hydroxytyrosol 20 uM + menadione): 229.9^1%
synergistic decrease in ROS production, combination with GAP amino acids vs either alone ([1]; + menadione): no synergistic effect
cell viability (% vehicle of control) ([2]; 3-hydroxytyrosol 10 uM + menadione): 16.8%
cell viability (% vehicle of control) ([2]; 3-hydroxytyrosol 20 uM + menadione): 16.5%

CC(C)(C)OC(=O)[C@@H](N)CSSC[C@H](N)C(=O)OC(C)(C)C.Cl.Cl [DTBC, Ditert-butyl L-cystinate dihydrochloride]
% Protection (improvement vs. vehicle control + menadione), ROS [1, 8]: 2.2%
% protection (improvement vs. vehicle control + menadione), cell viability [2, 8]: 6.0^1%
% protection (improvement vs. vehicle control + menadione), cell viability ([2]; Table 1F, DTBC 40 uM + menadione): 3.0^1%
% protection (improvement vs. vehicle control + menadione), cell viability ([2]; Table 1F, DTBC 80 uM + menadione): −0.1^1%

CCOC(=O)[C@@H](N)CSSC[C@H](N)C(=O)OCC.Cl.Cl [DEC, Diethyl L-cystinate dihydrochloride]
% Protection (improvement vs. vehicle control + menadione), ROS ([1]; Table 1D, DEC 20 uM + menadione): 38.0^1,2%

COC(=O)[C@@H](N)CSSC[C@H](N)C(=O)OC.Cl.Cl [CDME, L-Cystine dimethyl ester dihydrochloride]
% Protection (improvement vs. vehicle control + menadione), ROS [1, 9]: 18.2^2%
ROS production (% of vehicle control) [1, 9]: 107.8^2%
% Protection (improvement vs. vehicle control + menadione), ROS [1, 10]: 15.5^1,2%
ROS production (% of vehicle control) [1, 10]: 111.3^1,2%
% Protection (improvement vs. vehicle control + menadione), ROS [1, 11]: 13.3^1,2%
ROS production (% of vehicle control) [1, 11]: 114.3^1,2%
% Protection (improvement vs. vehicle control + menadione), ROS [1, 12]: 25.7^2%
ROS production (% of vehicle control) [1, 12]: 97.9^2%
% protection (improvement vs. vehicle control + menadione), cell viability [2, 9]: 30.2^1,2%
Cell viability (% of vehicle control) [2, 9]: 90.9^1,2%
% protection (improvement vs. vehicle control + menadione), cell viability [2, 10]: 33.4^1,2%
Cell viability (% of vehicle control) [2, 10]: 93.1^1,2%
% protection (improvement vs. vehicle control + menadione), cell viability [2, 11]: 24.6^1,2%
Cell viability (% of vehicle control) [2, 11]: 87.0^1,2%
% protection (improvement vs. vehicle control + menadione), cell viability [2, 12]: 51.7^1,2%
Cell viability (% of vehicle control) [2, 12]: 105.9^1,2%
